pIC50: −log10 of the molar value. Calls of active or inactive are those of the source. The rule behind the calls is not given here.
Legend:
[1] = tested on: Triticum aestivum; experiment: Binding affinity to wheat-germ agglutinin assessed as increase in response units by surface plasmon resonance
[2] = tested on: Triticum aestivum; experiment: Binding affinity to wheat-germ agglutinin assessed as precipiting bands by double diffusion test
[3] = Inhibition of wheat-germ agglutinin-mediated hemagglutinination of rabbit erythrocytes; set-up: species or system Triticum aestivum
[4] = tested on: Erythrina variegata; experiment: Binding affinity to Erythrina variegata agglutinin assessed as precipitation by UV detection based precipitation analysis
[5] = Inhibition of Erythrina variegata agglutinin-mediated hemagglutinination of rabbit erythrocytes
[6] = tested on: Triticum aestivum; experiment: Binding affinity to wheat-germ agglutinin assessed as precipitation by UV detection based precipitation analysis
[7] = tested on: Erythrina variegata; experiment: Binding affinity to Erythrina variegata agglutinin assessed as precipiting bands by double diffusion test

Row | Activity [1] | Activity [2] | pIC50 [3] | Activity [4] | pIC50 [5] | Activity [6] | Activity [7] | SMILES
1 | Dose-dependent effect | Active | 4.33 | inactive | – | – | – | CC(=O)N[C@@H]1[C@@H](O)[C@H](O)[C@@H](CO)O[C@H]1NC(=O)CCCCCNC(=O)CN(CCOCCOCCN(CC(=O)NCCCCCC(=O)N[C@@H]1O[C@H](CO)[C@@H](O)[C@H](O)[C@H]1NC(C)=O)CC(=O)NCCCCCC(=O)N[C@@H]1O[C@H](CO)[C@@H](O)[C@H](O)[C@H]1NC(C)=O)CC(=O)NCCCCCC(=O)N[C@@H]1O[C@H](CO)[C@@H](O)[C@H](O)[C@H]1NC(C)=O
2 | – | inactive | – | Active | 5.23 | inactive | Active | CC(=O)N[C@@H]1[C@@H](O)[C@H](O[C@@H]2O[C@H](CO)[C@H](O)[C@H](O)[C@H]2O)[C@@H](CO)O[C@H]1NC(=O)CCCCCNC(=O)CN(CCOCCOCCN(CC(=O)NCCCCCC(=O)N[C@@H]1O[C@H](CO)[C@@H](O[C@@H]2O[C@H](CO)[C@H](O)[C@H](O)[C@H]2O)[C@H](O)[C@H]1NC(C)=O)CC(=O)NCCCCCC(=O)N[C@@H]1O[C@H](CO)[C@@H](O[C@@H]2O[C@H](CO)[C@H](O)[C@H](O)[C@H]2O)[C@H](O)[C@H]1NC(C)=O)CC(=O)NCCCCCC(=O)N[C@@H]1O[C@H](CO)[C@@H](O[C@@H]2O[C@H](CO)[C@H](O)[C@H](O)[C@H]2O)[C@H](O)[C@H]1NC(C)=O
3 | Dose-dependent effect | Active | 5.23 | inactive | – | – | – | CC(=O)N[C@@H]1[C@@H](O)[C@H](O[C@@H]2O[C@H](CO)[C@@H](O)[C@H](O)[C@H]2NC(C)=O)[C@@H](CO)O[C@H]1NC(=O)CN(CCOCCOCCN(CC(=O)N[C@@H]1O[C@H](CO)[C@@H](O[C@@H]2O[C@H](CO)[C@@H](O)[C@H](O)[C@H]2NC(C)=O)[C@H](O)[C@H]1NC(C)=O)CC(=O)N[C@@H]1O[C@H](CO)[C@@H](O[C@@H]2O[C@H](CO)[C@@H](O)[C@H](O)[C@H]2NC(C)=O)[C@H](O)[C@H]1NC(C)=O)CC(=O)N[C@@H]1O[C@H](CO)[C@@H](O[C@@H]2O[C@H](CO)[C@@H](O)[C@H](O)[C@H]2NC(C)=O)[C@H](O)[C@H]1NC(C)=O
4 | – | – | – | – | 4.33 | – | – | CC(=O)N[C@@H]1[C@@H](O)[C@H](O[C@@H]2O[C@H](CO)[C@H](O)[C@H](O)[C@H]2O)[C@@H](CO)O[C@H]1NC(=O)CCCCCC(=O)N[C@@H]1O[C@H](CO)[C@@H](O[C@@H]2O[C@H](CO)[C@H](O)[C@H](O)[C@H]2O)[C@H](O)[C@H]1NC(C)=O
5 | – | – | – | – | 4.03 | – | – | CC(=O)N[C@@H]1[C@@H](O)[C@H](O[C@@H]2O[C@H](CO)[C@H](O)[C@H](O)[C@H]2O)[C@@H](CO)O[C@H]1O
6 | – | – | 3.12 | – | – | – | – | CC(=O)N[C@H]1[C@H](O[C@H]2[C@H](O)[C@@H](NC(C)=O)C(O)O[C@@H]2CO)O[C@H](CO)[C@@H](O)[C@@H]1O (stereo not given in full)
7 | – | inactive | < 2.40 | Active | 5.92 | inactive | Active | CC(=O)N[C@@H]1[C@@H](O)[C@H](O[C@@H]2O[C@H](CO)[C@H](O)[C@H](O)[C@H]2O)[C@@H](CO)O[C@H]1NC(=O)CN(CCOCCOCCN(CC(=O)N[C@@H]1O[C@H](CO)[C@@H](O[C@@H]2O[C@H](CO)[C@H](O)[C@H](O)[C@H]2O)[C@H](O)[C@H]1NC(C)=O)CC(=O)N[C@@H]1O[C@H](CO)[C@@H](O[C@@H]2O[C@H](CO)[C@H](O)[C@H](O)[C@H]2O)[C@H](O)[C@H]1NC(C)=O)CC(=O)N[C@@H]1O[C@H](CO)[C@@H](O[C@@H]2O[C@H](CO)[C@H](O)[C@H](O)[C@H]2O)[C@H](O)[C@H]1NC(C)=O
8 | Dose-dependent effect | Active | 6.74 | inactive | – | – | – | CC(=O)N[C@@H]1[C@@H](O)[C@H](O[C@@H]2O[C@H](CO)[C@@H](O)[C@H](O)[C@H]2NC(C)=O)[C@@H](CO)O[C@H]1NC(=O)CCCCCNC(=O)CN(CCOCCOCCN(CC(=O)NCCCCCC(=O)N[C@@H]1O[C@H](CO)[C@@H](O[C@@H]2O[C@H](CO)[C@@H](O)[C@H](O)[C@H]2NC(C)=O)[C@H](O)[C@H]1NC(C)=O)CC(=O)NCCCCCC(=O)N[C@@H]1O[C@H](CO)[C@@H](O[C@@H]2O[C@H](CO)[C@@H](O)[C@H](O)[C@H]2NC(C)=O)[C@H](O)[C@H]1NC(C)=O)CC(=O)NCCCCCC(=O)N[C@@H]1O[C@H](CO)[C@@H](O[C@@H]2O[C@H](CO)[C@@H](O)[C@H](O)[C@H]2NC(C)=O)[C@H](O)[C@H]1NC(C)=O
9 | Dose-dependent effect | inactive | < 2.40 | inactive | – | – | – | CC(=O)N[C@@H]1[C@@H](O)[C@H](O)[C@@H](CO)O[C@H]1NC(=O)CN(CCOCCOCCN(CC(=O)N[C@@H]1O[C@H](CO)[C@@H](O)[C@H](O)[C@H]1NC(C)=O)CC(=O)N[C@@H]1O[C@H](CO)[C@@H](O)[C@H](O)[C@H]1NC(C)=O)CC(=O)N[C@@H]1O[C@H](CO)[C@@H](O)[C@H](O)[C@H]1NC(C)=O
